Test results taken from ChEMBL document CHEMBL5316284, “Structural Determinants of Indole-2-carboxamides: Identification of Lead Acetamides with Pan Antimycobacterial Activity” (J Med Chem, 2023).
In brackets after ≈: the same amount, converted by molar mass.

Assays:
Format in all cases: functional
[1] = test system: Mycobacterium tuberculosis; test: Antimycobacterial activity against Mycobacterium tuberculosis harbouring wild-type mmpL3 gene assessed as inhibition of bacterial growth by visual analysis
[2] = test system: Mycobacterium tuberculosis; test: Antimycobacterial activity against Mycobacterium tuberculosis harbouring mmpL3 S309C mutant gene assessed as inhibition of bacterial growth by visual analysis
[3] = test system: Mycobacterium tuberculosis; test: Antimycobacterial activity against Mycobacterium tuberculosis harbouring mmpL3 L189R mutant gene assessed as inhibition of bacterial growth by visual analysis
[4] = test system: Mycobacterium tuberculosis; test: Antimycobacterial activity against Mycobacterium tuberculosis harbouring mmpL3 G253E mutant gene assessed as inhibition of bacterial growth by visual analysis
[5] = test system: Mycobacterium tuberculosis; test: Antimycobacterial activity against Mycobacterium tuberculosis harbouring mmpL3 S288T mutant gene assessed as inhibition of bacterial growth by visual analysis
[6] = test system: Mycobacterium tuberculosis; test: Antimycobacterial activity against Mycobacterium tuberculosis harbouring mmpL3 L567P mutant gene assessed as inhibition of bacterial growth by visual analysis
[7] = test system: Mycobacterium tuberculosis; test: Antimycobacterial activity against Mycobacterium tuberculosis harbouring mmpL3 S591l mutant gene assessed as inhibition of bacterial growth by visual analysis
[8] = test system: Mycobacterium tuberculosis; test: Antimycobacterial activity against Mycobacterium tuberculosis harbouring mmpL3 F644C mutant gene assessed as inhibition of bacterial growth by visual analysis
[9] = test system: Mycobacterium tuberculosis; test: Antimycobacterial activity against Mycobacterium tuberculosis harbouring mmpL3 V684G mutant gene assessed as inhibition of bacterial growth by visual analysis
[10] = test system: Mycobacterium tuberculosis; test: Antimycobacterial activity against Mycobacterium tuberculosis harbouring mmpL3 V684A mutant gene assessed as inhibition of bacterial growth by visual analysis

SMILES: C[C@@H]1[C@H]2C[C@@H](C[C@H]1NC(=O)CNc1cccc(Cl)c1)C2(C)C
- MIC [1]: 1 µg/mL (≈ 3.12 µM)
- MIC [2]: 8 µg/mL (≈ 24.9 µM)
- MIC [3]: 4 µg/mL (≈ 12.5 µM)
- MIC [4]: 4 µg/mL (≈ 12.5 µM)
- MIC [5]: 16 µg/mL (≈ 49.9 µM)
- MIC [6]: 2 µg/mL (≈ 6.23 µM)
- MIC [7]: 4 µg/mL (≈ 12.5 µM)
- MIC [8]: 4 µg/mL (≈ 12.5 µM)
- MIC [9]: 2 µg/mL (≈ 6.23 µM)
- MIC [10]: 2 µg/mL (≈ 6.23 µM)

SMILES: CC[C@H]1OC(=O)[C@H](C)[C@@H](O[C@H]2C[C@@](C)(OC)[C@@H](O)[C@H](C)O2)[C@H](C)[C@@H](O[C@@H]2O[C@H](C)C[C@H](N(C)C)[C@H]2O)[C@](C)(OC)C[C@@H](C)C(=O)[C@H](C)[C@@H](O)[C@]1(C)O [CLARITHROMYCIN]
- MIC [1]: 0.5 µg/mL (≈ 0.668 µM)
- MIC [2]: 0.5 µg/mL (≈ 0.668 µM)
- MIC [3]: 0.5 µg/mL (≈ 0.668 µM)
- MIC [4]: 0.5 µg/mL (≈ 0.668 µM)
- MIC [5]: 0.5 µg/mL (≈ 0.668 µM)
- MIC [6]: 0.5 µg/mL (≈ 0.668 µM)
- MIC [7]: 0.5 µg/mL (≈ 0.668 µM)
- MIC [8]: 0.5 µg/mL (≈ 0.668 µM)
- MIC [9]: 0.5 µg/mL (≈ 0.668 µM)

SMILES: O=C(CNc1cccc(OC(F)(F)F)c1)NC12CC3CC(CC(C3)C1)C2
- MIC [1]: 0.5 µg/mL (≈ 1.36 µM)
- MIC [2]: 4 µg/mL (≈ 10.9 µM)
- MIC [3]: 2 µg/mL (≈ 5.43 µM)
- MIC [4]: 4 µg/mL (≈ 10.9 µM)
- MIC [5]: 8 µg/mL (≈ 21.7 µM)
- MIC [6]: 2 µg/mL (≈ 5.43 µM)
- MIC [7]: 4 µg/mL (≈ 10.9 µM)
- MIC [9]: 0.5 µg/mL (≈ 1.36 µM)
- MIC [10]: 1 µg/mL (≈ 2.71 µM)
